Data from ChEMBL document CHEMBL1201862, “PubChem BioAssay data set” (2004).
Activity calls are given as the source filed them.

Columns and labels:
[1] = molecular target: T1, Low molecular weight phosphotyrosine protein phosphatase (Homo sapiens, UniProt P24666); type: functional; conditions: read-out: IC50_Mean
T1 sequence (P24666 whole entry): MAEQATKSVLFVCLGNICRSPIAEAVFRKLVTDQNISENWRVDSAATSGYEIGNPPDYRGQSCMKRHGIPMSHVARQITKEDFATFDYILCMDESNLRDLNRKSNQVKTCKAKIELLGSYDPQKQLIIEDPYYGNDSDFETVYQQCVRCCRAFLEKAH

Interleukin-8 [2] = molecular target: T2, Interleukin-8 (Homo sapiens, UniProt P10145); assay: Dose Response confirmation of uHTS small molecule hits for cystic fibrosis induced NFkb Inhibitors in a PAF-induced IL8 counterscreen.; type: functional; conditions: read-out: IC50_Mean
Interleukin-8 [3] = molecular target: T2, Interleukin-8; assay: Dose Response confirmation of uHTS small molecule hits for cystic fibrosis induced NFkb Inhibitors in a TNFa-induced IL8 counterscreen.; type: functional; conditions: read-out: IC50_Mean
[4] = molecular target: T3, ATP-dependent translocase ABCB1 (Homo sapiens, UniProt P08183); assay: ABCG2 efflux pump inhibitor potency, dose response, Ig-MXP3 cells, JC-1, flow cytometry, set 2 (AID 504566); type: functional; conditions: read-out: EC50_MICROM_;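 also: flow cytometry median green fluorescence of retained JC-1 dye; potency of efflux pump inhibition measured as rising substrate retention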
[5] = molecular target: T3, ATP-dependent translocase ABCB1; assay: ABCB1 efflux inhibitor potency, dose response, Jurkat-DNR cells, JC-1, flow cytometry, set 2 (AID 504569); type: functional; conditions: read-out: EC50_MICROM_;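 also: potency of pump inhibitors that raise cellular JC-1 green fluorescence up to the nicardipine level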
[6] = molecular target: T4, Small ubiquitin-related modifier 1 (Homo sapiens, UniProt P63165); assay: inhibitors of SUMO1 partner interactions, dose response, biochemical, FRET (AID 624383); type: functional; conditions: read-out: IC50_Mean
[7] = molecular target: Small ubiquitin-related modifier 2 (Homo sapiens, UniProt P61956); assay: inhibitors of SUMO2 protein-protein interaction, dose response, selectivity assay for SUMO1 interaction inhibitor project, biochemical, FRET, human SUMO2, uHTS hits (AID 624384); type: functional; conditions: read-out: IC50_Mean
[8] = molecular target: T4, Small ubiquitin-related modifier 1; assay: inhibitors of SUMO1 peptide binding, dose response, biochemical, fluorescence polarization, uHTS hits (AID 624382); type: functional; conditions: read-out: IC50_Mean
[9] = microbe, parasite or virus in culture; type: functional; conditions: Mycobacterium tuberculosis
[10] = AlphaScreen signal interference compounds, dose response, artefact control for ARNT-TACC3 interaction inhibitor project, biochemical, luminescence, cherry-pick (AID 651705); type: functional;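 also: AlphaScreen bead proximity signal that flags compounds interfering with the detection technology; potency reflects signal decrease which marks the compound as an assay artifact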
H9c2 = assay: cells; type: functional, cell-based; conditions: Rattus norvegicus, H9c2, Myocardium
[11] = molecular target: DNA repair and recombination protein RAD54-like (Homo sapiens, UniProt Q92698); assay: inhibitors of human RAD54 branch migration, confirmation, biochemical, fluorescence, cherry-picked samples, dose series (AID 651657); type: functional
[12] = MDA-MB-231 cell growth inhibition, dose response, cytotoxicity control for RAD54 inhibitor project, CellTiter-Glo luminescence, cherry-pick (AID 651692); type: functional, cell-based
[13] = molecular target: T5, DNA repair protein RAD52 homolog (Homo sapiens, UniProt P43351); type: functional, biochemical
T5 sequence (P43351 whole entry): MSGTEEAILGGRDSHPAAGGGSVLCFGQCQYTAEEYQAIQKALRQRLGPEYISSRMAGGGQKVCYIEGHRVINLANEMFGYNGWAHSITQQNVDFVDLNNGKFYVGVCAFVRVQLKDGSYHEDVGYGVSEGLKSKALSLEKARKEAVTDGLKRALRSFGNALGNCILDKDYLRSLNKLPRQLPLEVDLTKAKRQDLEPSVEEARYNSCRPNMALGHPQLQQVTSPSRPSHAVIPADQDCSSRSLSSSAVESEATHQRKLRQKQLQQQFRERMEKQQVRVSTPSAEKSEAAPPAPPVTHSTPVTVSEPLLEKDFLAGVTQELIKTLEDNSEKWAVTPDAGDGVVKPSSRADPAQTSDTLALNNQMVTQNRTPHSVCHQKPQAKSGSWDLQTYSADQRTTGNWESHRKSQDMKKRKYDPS

[14] = molecular target: 5-hydroxytryptamine receptor 5A (Homo sapiens, UniProt P47898); assay: Counterscreen for agonists of OPRM1-OPRD1 heterodimerization: luminescence-based cell-based high throughput dose response assay to identify agonists of 5-hydroxytryptamine (serotonin) 5A receptor (HTR5A). [Related pubchem assays (depositor defined):AID504326, AID504355, AID504692, AID504904, AID504905]; type: functional
Vero = assay: host cell cytotoxicity of antiviral hits, dose response, cytotoxicity control for West Nile virus antiviral project, secondary assay (AID 1650); type: functional; conditions: Chlorocebus sabaeus
[15] = molecular target: Delta-type opioid receptor (Homo sapiens, UniProt P41143); assay: Counterscreen for agonists of heterodimerization of the mu 1 (OPRM1) and delta 1 (OPRD1) opioid receptors: Luminescence-based cell-based high throughput dose response assay to identify agonists of OPRD1 homodimerization. [Related pubchem assays (depositor defined):AID504326, AID504355, AID504692, AID504904, AID504905]; type: functional
Mu-type opioid receptor = Mu-type opioid receptor (Homo sapiens, UniProt P35372); assay: Counterscreen for agonists of heterodimerization of the mu 1 (OPRM1) and delta 1 (OPRD1) opioid receptors: Luminescence-based cell-based high throughput dose response assay to identify agonists of OPRM1 homodimerization.; type: functional;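 also: U2OS cells expressing OPRM1 and beta-arrestin as split beta-galactosidase partners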
INS1 = assay: beta cell apoptosis inhibitors, cytokine rescue, dose response, luminescence, retest (AID 449756); type: functional, cell-based; conditions: Rattus norvegicus;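 also: cell death triggered by IL-1 beta plus TNF-alpha plus IFN-gamma mixture; protective hits raise ATP signal compared with cytokine alone wells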
[16] = molecular target: T6, Probable nicotinate-nucleotide adenylyltransferase (Staphylococcus aureus (strain N315), UniProt P65502); type: functional, Staphylococcus aureus subsp. aureus N315;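 as to IC50 Mean: confirmatory dose-response retesting of NadD inhibitor hits first found in an ultra-high-throughput screen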
[17] = molecular target: T6, Probable nicotinate-nucleotide adenylyltransferase; type: functional, Staphylococcus aureus subsp. aureus N315; conditions: read-out: IC50_Mean
[18] = THP-1 cell cytotoxicity, dose response, cytotoxicity control for Vif-APOBEC3G degradation inhibitor project, THP-1 cells (AID 1117359); type: functional; conditions: Human immunodeficiency virus 1, THP-1
[19] = molecular target: Aryl hydrocarbon receptor (Homo sapiens, UniProt P35869); conditions: Potency;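 also: confirmatory quantitative high-throughput screen measuring activation of the AhR signaling pathway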
[20] = molecular target: Glutathione-S-transferase (Schistosoma japonicum, UniProt Q26513); assay: biotin-GST/anti-GST TR-FRET signal inhibitors, dose response, artefact control for Vif-APOBEC3G degradation inhibitor project, biochemical (AID 1117362); type: functional
[21] = molecular target: Voltage-gated inwardly rectifying potassium channel KCNH2 (Homo sapiens, UniProt Q12809); conditions: Potency;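 also: confirmatory quantitative high-throughput screen measuring inhibition of hERG channel activity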
[22] = cytotoxicity toward NIH3T3 fibroblasts, dose response, counter-screen, cell-based, ATP luminescence, mouse fibroblasts (AID 2010); type: functional;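 also: cells exposed to compound for about 90 hours before reading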
Protein RecA = molecular target: T7, Protein RecA (Mycobacterium tuberculosis, UniProt P9WHJ3); assay: Fluorescence Cell-Free Homogeneous Dose Retest to Identify Inhibitors of RecA-Intein Splicing Activity. [Related pubchem assays (depositor defined):AID2097, AID2223, AID489010, AID492950]; type: functional
T7 sequence (P9WHJ3 whole entry): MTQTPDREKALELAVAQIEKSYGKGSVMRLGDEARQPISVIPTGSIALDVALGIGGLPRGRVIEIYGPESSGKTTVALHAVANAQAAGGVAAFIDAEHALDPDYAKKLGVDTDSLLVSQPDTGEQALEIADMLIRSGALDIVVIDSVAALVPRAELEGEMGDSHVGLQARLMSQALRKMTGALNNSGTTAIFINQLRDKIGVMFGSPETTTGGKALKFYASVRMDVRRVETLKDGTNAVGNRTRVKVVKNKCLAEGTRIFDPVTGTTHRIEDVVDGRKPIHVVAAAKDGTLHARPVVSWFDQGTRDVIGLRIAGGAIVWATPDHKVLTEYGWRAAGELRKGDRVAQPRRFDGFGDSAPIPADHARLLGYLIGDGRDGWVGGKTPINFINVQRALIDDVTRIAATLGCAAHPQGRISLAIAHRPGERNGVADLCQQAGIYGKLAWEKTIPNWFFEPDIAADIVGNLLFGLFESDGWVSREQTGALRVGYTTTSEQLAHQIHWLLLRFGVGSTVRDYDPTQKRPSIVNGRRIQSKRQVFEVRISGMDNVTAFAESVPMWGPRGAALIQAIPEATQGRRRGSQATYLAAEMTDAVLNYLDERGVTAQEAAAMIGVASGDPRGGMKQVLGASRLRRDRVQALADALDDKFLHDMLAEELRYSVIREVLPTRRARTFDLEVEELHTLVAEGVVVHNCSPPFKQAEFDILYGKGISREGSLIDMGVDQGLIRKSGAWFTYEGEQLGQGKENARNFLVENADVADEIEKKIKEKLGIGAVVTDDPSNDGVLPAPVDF

Large T antigen = Large T antigen (Simian virus 40, UniProt P03070); type: functional, Betapolyomavirus macacae;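 also: Confirmatory-stage PubChem screen for compounds that inhibit SV40 T antigen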
[23] = molecular target: Glucose-6-phosphate 1-dehydrogenase (Homo sapiens, UniProt P11413); assay: human G6PD enzyme inhibitors, dose response, selectivity assay for P. falciparum G6PD inhibitor project, biochemical, fluorescence (AID 504792); type: functional
Cytochrome P450 3A4 = Cytochrome P450 3A4 (Homo sapiens, UniProt P08684); conditions: Potency;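 also: confirmatory qHTS run detecting inhibitors and substrates of CYP3A4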
[24] = molecular target: T8, Replicative DNA helicase DnaB (Mycobacterium tuberculosis, UniProt P9WMR3); assay: DnaB intein splicing inhibitors, dose response, biochemical, cell-free fluorescence (AID 449749); type: functional
T8 sequence (P9WMR3 whole entry): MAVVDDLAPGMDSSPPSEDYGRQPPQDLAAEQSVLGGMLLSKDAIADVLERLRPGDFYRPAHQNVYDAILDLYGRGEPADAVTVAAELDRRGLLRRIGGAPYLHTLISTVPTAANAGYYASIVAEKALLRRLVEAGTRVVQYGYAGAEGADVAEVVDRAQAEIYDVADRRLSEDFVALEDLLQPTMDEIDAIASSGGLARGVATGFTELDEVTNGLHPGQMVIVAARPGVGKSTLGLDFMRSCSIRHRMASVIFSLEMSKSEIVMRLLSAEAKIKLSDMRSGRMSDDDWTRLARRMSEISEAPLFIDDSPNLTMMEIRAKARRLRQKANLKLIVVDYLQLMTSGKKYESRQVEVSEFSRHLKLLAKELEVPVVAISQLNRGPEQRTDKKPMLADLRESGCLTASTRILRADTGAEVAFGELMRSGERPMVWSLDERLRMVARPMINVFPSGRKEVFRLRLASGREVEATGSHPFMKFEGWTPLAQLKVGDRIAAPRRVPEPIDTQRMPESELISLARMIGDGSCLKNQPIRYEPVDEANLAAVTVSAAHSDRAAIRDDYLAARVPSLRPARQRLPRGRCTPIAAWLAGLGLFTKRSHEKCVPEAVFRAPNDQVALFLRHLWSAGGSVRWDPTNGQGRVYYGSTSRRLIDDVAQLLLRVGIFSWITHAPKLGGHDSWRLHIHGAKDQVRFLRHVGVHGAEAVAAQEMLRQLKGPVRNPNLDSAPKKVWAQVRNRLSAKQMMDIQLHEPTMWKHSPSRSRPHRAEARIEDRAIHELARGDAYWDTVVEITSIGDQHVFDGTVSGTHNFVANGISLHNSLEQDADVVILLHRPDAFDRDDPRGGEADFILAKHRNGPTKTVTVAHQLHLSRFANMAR

Nonstructural protein 1 = Nonstructural protein 1 (Influenza A virus, UniProt Q194T2); type: functional, Influenza A virus (A/California/07/2009(H1N1))
[25] = inhibitors of intracellular T. cruzi replication, confirmation, NIH3T3 host cells, beta-gal luminescence (AID 2044); type: functional, cell-based;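 also: intracellular parasites grown in NIH/3T3 mouse fibroblasts as host cells; luminescent beta-galactosidase reporter signal from transgenic T. cruzi replicating inside host cells; inhibitors lower the luminescence signal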

T6 sequence (P65502 whole entry): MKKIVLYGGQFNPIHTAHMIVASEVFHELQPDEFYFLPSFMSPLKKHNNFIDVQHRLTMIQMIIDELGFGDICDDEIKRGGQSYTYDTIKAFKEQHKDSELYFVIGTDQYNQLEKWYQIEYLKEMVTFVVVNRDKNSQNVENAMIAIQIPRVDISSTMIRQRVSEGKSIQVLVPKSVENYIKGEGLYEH
T2 sequence (P10145 whole entry): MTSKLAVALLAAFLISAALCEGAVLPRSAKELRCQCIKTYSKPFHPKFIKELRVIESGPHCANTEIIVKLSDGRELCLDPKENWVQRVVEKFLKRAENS
T3 sequence (P08183 whole entry): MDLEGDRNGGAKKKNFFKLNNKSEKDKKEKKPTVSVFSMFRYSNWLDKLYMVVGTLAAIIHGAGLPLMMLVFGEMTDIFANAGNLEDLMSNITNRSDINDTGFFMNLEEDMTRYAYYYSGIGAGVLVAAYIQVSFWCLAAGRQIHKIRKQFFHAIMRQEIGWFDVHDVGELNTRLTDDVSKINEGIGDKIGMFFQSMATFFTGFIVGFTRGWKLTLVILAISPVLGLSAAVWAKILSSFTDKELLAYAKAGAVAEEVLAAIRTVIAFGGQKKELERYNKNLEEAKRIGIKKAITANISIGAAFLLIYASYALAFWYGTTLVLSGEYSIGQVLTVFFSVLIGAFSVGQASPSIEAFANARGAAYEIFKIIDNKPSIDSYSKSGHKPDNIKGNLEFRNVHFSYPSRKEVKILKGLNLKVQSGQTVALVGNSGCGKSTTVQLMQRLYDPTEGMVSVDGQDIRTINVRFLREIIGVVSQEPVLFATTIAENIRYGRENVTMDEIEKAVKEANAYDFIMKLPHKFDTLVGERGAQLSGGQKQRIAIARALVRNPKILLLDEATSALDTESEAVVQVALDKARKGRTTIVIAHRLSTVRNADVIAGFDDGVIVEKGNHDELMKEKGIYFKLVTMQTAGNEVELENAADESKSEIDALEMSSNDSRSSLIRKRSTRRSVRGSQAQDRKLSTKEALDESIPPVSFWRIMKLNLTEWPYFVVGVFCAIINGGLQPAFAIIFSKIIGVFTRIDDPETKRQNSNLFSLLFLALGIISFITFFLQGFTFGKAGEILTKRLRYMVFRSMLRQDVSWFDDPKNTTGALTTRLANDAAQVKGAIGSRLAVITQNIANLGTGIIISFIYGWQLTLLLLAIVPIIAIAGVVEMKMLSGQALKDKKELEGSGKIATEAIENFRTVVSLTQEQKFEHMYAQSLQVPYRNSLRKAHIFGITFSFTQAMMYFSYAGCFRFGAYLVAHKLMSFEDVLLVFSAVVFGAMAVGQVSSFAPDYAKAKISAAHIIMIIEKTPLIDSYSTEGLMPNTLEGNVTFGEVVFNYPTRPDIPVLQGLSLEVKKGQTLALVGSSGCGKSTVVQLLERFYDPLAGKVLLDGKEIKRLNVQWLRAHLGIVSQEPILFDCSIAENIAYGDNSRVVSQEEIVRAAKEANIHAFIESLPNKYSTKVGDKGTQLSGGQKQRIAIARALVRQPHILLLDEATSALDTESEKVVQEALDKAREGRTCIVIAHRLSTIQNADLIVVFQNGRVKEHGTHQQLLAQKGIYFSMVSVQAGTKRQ
T4 sequence (P63165 whole entry): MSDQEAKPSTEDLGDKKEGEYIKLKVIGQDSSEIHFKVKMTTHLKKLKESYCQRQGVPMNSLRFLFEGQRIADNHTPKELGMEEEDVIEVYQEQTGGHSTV
Chain of Cytochrome P450 3A4 (P08684 whole entry): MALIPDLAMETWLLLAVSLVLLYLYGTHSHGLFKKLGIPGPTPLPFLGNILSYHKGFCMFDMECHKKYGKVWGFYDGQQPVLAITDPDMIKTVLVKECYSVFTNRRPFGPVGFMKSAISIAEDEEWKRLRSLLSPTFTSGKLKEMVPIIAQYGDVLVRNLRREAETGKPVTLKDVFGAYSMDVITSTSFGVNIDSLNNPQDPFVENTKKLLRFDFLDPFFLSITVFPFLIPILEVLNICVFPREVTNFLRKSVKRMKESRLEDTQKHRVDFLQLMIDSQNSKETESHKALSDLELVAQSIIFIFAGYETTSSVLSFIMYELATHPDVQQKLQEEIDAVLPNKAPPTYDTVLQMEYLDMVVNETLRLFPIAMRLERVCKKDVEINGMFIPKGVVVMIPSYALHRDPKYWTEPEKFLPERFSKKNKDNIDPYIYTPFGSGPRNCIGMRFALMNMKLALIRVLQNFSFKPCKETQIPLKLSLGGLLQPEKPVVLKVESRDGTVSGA
Chain of Delta-type opioid receptor (P41143 whole entry): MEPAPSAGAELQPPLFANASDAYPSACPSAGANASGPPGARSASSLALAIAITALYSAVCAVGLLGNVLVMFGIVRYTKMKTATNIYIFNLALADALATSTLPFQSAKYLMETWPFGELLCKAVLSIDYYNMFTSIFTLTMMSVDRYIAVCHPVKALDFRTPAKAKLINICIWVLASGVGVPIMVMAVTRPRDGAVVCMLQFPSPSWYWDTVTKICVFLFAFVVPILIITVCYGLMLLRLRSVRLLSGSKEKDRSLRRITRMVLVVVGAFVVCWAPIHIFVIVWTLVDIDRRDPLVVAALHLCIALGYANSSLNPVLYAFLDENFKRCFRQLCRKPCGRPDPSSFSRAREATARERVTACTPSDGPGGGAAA
Chain of Glutathione-S-transferase (Q26513 whole entry): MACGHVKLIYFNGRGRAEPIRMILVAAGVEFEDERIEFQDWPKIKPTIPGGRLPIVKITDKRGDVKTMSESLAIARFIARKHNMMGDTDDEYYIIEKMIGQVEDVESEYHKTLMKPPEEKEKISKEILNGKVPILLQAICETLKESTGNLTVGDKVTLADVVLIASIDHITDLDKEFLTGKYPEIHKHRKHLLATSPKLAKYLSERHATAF
Chain of DNA repair and recombination protein RAD54-like (Q92698 whole entry): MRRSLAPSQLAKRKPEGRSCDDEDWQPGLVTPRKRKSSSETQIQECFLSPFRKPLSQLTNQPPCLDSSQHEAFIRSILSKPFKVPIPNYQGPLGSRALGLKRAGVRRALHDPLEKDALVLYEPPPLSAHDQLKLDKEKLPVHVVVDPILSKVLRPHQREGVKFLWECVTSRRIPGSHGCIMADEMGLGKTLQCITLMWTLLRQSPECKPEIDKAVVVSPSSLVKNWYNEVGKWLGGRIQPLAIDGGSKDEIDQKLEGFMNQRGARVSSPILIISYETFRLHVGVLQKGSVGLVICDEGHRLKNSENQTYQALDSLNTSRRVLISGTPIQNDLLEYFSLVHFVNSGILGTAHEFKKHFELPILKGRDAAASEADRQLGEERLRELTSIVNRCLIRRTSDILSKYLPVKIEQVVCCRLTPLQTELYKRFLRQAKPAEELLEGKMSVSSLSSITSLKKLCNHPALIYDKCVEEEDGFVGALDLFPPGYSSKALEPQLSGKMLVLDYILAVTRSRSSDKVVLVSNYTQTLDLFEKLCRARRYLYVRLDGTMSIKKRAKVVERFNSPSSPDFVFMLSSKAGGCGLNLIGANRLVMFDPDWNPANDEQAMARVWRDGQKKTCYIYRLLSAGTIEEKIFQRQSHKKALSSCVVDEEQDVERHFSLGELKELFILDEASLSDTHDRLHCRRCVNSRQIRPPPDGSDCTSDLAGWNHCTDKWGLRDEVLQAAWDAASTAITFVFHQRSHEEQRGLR
Chain of Voltage-gated inwardly rectifying potassium channel KCNH2 (Q12809 whole entry): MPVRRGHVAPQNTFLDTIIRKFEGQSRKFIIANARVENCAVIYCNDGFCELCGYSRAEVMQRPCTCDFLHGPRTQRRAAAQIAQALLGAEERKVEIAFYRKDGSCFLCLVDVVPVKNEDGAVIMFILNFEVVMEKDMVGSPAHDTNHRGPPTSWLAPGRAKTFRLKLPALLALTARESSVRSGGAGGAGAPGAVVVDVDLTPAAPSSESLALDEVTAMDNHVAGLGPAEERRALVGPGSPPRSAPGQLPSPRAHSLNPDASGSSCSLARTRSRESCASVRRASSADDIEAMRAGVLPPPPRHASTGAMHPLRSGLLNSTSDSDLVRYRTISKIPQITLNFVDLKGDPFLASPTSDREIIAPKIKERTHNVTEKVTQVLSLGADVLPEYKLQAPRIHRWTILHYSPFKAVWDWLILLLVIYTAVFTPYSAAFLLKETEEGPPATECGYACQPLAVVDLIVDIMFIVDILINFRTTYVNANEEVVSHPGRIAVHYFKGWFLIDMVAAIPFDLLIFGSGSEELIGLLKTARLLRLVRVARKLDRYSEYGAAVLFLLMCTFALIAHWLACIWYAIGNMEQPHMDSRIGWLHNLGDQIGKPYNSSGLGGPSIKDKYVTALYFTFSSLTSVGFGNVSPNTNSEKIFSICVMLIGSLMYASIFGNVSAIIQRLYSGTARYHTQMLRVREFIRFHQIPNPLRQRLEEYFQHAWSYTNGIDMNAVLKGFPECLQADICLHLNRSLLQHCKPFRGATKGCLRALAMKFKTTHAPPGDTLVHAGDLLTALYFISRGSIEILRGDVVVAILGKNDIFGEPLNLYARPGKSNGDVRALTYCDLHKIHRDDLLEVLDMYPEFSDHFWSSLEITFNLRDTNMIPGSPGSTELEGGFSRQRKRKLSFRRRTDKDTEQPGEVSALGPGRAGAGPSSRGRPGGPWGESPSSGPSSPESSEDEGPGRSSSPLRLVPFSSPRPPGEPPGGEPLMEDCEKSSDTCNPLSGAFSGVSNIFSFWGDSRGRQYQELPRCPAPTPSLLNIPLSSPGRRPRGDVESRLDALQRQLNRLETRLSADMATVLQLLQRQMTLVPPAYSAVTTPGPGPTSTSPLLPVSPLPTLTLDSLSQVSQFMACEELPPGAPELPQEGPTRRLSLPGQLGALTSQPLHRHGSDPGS
Chain of Small ubiquitin-related modifier 2 (P61956 whole entry): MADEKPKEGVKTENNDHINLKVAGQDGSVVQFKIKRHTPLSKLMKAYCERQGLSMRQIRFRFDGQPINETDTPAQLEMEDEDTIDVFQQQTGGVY

## C[C@@H](NC(=O)c1ncn2c1c(O)nc1ccc(Br)cc12)c1ccccc1
[1]
  IC50: 25 µM (inactive)

## Cc1ccccc1C(=O)N1CCN(c2ccc(NC(=O)c3cccc(OC(C)C)c3)cc2)CC1
Interleukin-8 [2]
  IC50: 39.6 µM (inactive)
Interleukin-8 [3]
  IC50: > 79 µM (inactive)

## Cc1nc2ncnn2c(N2CCN(C(=O)c3ccco3)CC2)c1Cc1ccccc1
[4]
  EC50: 2.14 µM (active)
[5]
  EC50: 4.97 µM (active)

## N#C/C(=C(\O)Nc1cccc(Cl)c1)c1nc2ccccc2[nH]1
[6]
  IC50: 52.6 µM (inactive)
[7]
  IC50: > 66 µM (inactive)
[8]
  IC50: 66 µM (inactive)

## CCc1cc(C(=O)Nc2nc(-c3ccccn3)cs2)sc1C
[9]
  CC50: 32 µM (active)
[10]
  AC50: 103 µM (active)
H9c2
  IC50: > 79 µM (inactive)

## CCOc1ccc(Nc2c3ccccc3nc3ccccc23)cc1
[11]
  AC50: 7.28 µM (active)
[12]
  AC50: 46.9 µM (active)
[13]
  AC50: 1.57 µM (active)
[14]
  EC50: > 92.5 µM (inactive)
Vero
  CC50: 6.47 µM (active)
[15]
  EC50: > 92.5 µM (inactive)
Mu-type opioid receptor
  EC50: 43.8 µM (inactive)
INS1
  AC50: 5.05 µM (active)

## Cc1ccc(S(=O)(=O)Nc2ccc(Nc3nccn4c(-c5ccc6ccccc6c5)cnc34)cc2)cc1
[16]
  IC50: 9.78 µM (active)
[17]
  IC50: 16.3 µM (active)

## CC(C)Nc1ccc(Nc2ccccc2)cc1
[18]
  CC50: 26.2 µM (active)
[19]
  AC50: 44.7 µM (inconclusive)
[20]
  IC50: 58 µM (active)
[21]
  AC50: 15.8 µM (inconclusive)
[22]
  EC50: > 60 µM (not active)
Protein RecA
  EC50: 76.4 µM (active)
Large T antigen
  IC50: 9.01 µM (active)
[23]
  IC50: > 80 µM (inactive)
Cytochrome P450 3A4
  AC50: 25.1 µM (inconclusive)
[24]
  AC50: 127 µM (active)
Nonstructural protein 1
  IC50: 19.2 µM (active)
[25]
  EC50: 2.52 µM (active)
INS1
  AC50: 6.94 µM (active)
